Laboratory results published in PMC9636949 (Proceedings of the National Academy of Sciences of the …, 2022).

Columns and labels:
human α7-AChR [1] = target: T1, human α7-AChR (Homo sapiens, UniProt P36544); settings: pH 7.4; cited from earlier work
human α7-AChR [2] = target: T1, human α7-AChR; type: binding; settings: read-out: Unlabeled-ligand half-competition concentration; pH 7.4

T1 sequence (P36544 23-502): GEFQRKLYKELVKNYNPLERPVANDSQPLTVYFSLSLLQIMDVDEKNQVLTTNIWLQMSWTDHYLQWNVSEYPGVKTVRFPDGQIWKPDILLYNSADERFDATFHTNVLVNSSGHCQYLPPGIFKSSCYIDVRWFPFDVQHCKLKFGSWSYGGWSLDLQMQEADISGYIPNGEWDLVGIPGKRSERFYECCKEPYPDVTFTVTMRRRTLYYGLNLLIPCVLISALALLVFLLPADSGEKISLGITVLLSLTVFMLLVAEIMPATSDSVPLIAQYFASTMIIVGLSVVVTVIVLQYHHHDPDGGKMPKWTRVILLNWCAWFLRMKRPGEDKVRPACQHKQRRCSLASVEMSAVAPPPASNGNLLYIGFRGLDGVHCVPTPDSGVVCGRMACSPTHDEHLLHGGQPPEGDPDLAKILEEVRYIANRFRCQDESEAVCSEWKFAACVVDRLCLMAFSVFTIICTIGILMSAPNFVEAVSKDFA

SMILES | Unlabeled-ligand nH (Hill coefficient) (human α7-AChR [1]) | IC50 (human α7-AChR [2]) [µM]
C[N+](C)(C)CCO [Choline, choline] | 1.28 ± 0.08 | –
CC[N+](C)(C)C [ETMA] | – | 15.6 ± 1.09
CN1CCC[C@H]1c1cccnc1 [Nicotine, nicotine] | 1.41 ± 0.06 | –
C[N+](C)(C)C [TMA, tetramethylammonium] | – | 11.4 ± 1.33
